Here are results for one compound from paper PMC6466480 (Journal of Medicinal Chemistry, 2019).

For assay [1], the target named is human D3R (Homo sapiens, UniProt P35462). Description: β-Arrestin recruitment assay. Format: cell-based. The following applies: agonist mode; percentage of the maximum dopamine response; CHO-K1. On the technique in general: Arrestin recruitment assays detect the binding of arrestin to an activated receptor.
For assay [2], the system named is D4R. The following applies: initially characterized as a full agonist; cited from earlier work.
The target of assay [3] is T1, human D4R (Homo sapiens, UniProt P21917).
T1 sequence (P21917 1-419): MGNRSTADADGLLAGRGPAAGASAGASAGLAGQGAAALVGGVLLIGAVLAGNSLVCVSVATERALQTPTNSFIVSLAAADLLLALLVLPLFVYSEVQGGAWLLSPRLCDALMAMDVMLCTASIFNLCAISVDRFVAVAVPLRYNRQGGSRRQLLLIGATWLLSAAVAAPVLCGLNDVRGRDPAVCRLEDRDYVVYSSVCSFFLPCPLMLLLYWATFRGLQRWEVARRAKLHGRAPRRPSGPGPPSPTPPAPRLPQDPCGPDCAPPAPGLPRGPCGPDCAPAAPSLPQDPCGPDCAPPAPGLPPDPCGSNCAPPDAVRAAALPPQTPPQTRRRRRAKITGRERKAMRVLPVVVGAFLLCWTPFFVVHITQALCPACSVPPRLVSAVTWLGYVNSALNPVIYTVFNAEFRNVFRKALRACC
Briefly: cAMP inhibition assay. It is filed as cell-based. The following applies: read-out: Emax at D4R (partial agonist).

human D3R, sequence (P35462 whole entry): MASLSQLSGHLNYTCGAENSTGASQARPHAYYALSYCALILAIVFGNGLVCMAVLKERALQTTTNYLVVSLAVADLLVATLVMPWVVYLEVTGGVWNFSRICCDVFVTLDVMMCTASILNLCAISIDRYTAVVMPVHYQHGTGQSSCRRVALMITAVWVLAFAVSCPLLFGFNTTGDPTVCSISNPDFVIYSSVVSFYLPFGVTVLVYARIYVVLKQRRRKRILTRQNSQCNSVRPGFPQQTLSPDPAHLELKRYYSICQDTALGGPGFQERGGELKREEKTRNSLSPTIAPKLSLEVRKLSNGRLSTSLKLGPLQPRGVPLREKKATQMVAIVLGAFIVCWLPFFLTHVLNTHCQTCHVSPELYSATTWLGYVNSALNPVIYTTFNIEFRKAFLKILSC

Take `Cc1cccc(NC(=O)CN2CCC(c3ccccn3)CC2)c1` [Compound 1, 2-(4-(pyridin-2-yl)piperidin-1-yl)-N-(m-tolyl)acetamide]: the “D3R efficacy β-arr Emax” value in assay [1] is “very low potency and efficacy”. Further, in assay [2], the “intrinsic activity at D4R” value is recorded as 83%. Moreover, the Emax – broadly, the size of the effect at its maximum, as opposed to the concentration needed – in assay [3] was 23 to 62%.
